Here are results for nine compounds from patent publication US10654802B2, “Indoline derivatives and method for using and producing the same” (ARIZONA BOARD OF REGENTS ON BEHALF OF THE UNIVERSITY OF …, priority 2016, dated 2020).

One data set addresses T1, Nox4 (Homo sapiens, UniProt Q9NPH5).
T1 construct: expressed in transfected cells
T1 sequence (Q9NPH5 1-578): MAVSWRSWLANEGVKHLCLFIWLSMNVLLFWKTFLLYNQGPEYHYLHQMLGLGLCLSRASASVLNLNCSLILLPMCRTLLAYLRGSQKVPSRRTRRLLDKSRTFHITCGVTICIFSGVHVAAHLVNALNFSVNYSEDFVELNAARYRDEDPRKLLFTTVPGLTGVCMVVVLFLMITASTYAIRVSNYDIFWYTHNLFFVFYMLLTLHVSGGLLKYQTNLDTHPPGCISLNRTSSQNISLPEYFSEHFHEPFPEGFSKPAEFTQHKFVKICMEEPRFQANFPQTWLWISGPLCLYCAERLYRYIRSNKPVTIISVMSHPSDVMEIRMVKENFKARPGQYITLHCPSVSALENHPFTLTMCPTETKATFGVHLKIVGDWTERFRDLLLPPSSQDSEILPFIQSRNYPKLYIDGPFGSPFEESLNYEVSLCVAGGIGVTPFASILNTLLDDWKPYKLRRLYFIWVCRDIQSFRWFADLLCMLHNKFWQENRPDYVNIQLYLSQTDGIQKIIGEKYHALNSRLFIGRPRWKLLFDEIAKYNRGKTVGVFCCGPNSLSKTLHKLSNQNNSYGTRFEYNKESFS
T1 sequence (P13498 1-195 partner): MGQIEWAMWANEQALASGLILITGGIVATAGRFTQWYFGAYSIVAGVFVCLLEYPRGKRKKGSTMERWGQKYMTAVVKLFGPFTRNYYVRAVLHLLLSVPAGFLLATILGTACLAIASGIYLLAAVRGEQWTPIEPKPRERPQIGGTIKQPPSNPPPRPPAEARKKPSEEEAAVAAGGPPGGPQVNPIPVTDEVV
The data set is described as follows: Inhibition of Nox4-dependent H2O2 production in HEK/Nox4 cells, Amplex Red assay. As to conditions: for remaining activity at 1 µM: 1 μM final concentration; for remaining activity at 1 µM / remaining activity at 5 µM / remaining activity at 10 µM: DMSO vehicle = 1.000, n = 3-10, read-out: H2O2 production relative to vehicle control, Mean; for remaining activity at 5 µM: 5 μM final concentration; for remaining activity at 10 µM: 10 μM final concentration. The format is cell-based. The procedure: A high-throughput screening (HTS) assay was established for Nox4 inhibition, utilizing HEK293 cells that stably over-express Nox4 (HEK/Nox4 cells), which generate high levels of H2O2(Cheng G et al, Gene: 2001, p. 131-140). Over 30,000 compounds have been screened and medicinal chemistry efforts have led to the synthesis of numerous analogs and the identification of a chemically distinct series of selective Nox4 inhibitors. […] IC-50 was evaluated for UANox048 (FIG. 1B).
HEK cells stably transfected to overexpress Nox4 were treated with varying concentrations of test compounds, DPI (all-Nox inhibitor positive control), or DMSO (vehicle control) and incubated for 1 h (FIG. 1). (FIG. 1A) H2O2 presence was evaluated by Amplex Red assay. […] Values represent means±SEM; n=4. P values were calculated by student's two-tailed t test. *p<0.05, **p<0.01, *** p<0.001.

The subject of data set [1] is HEK cells stably transfected to overexpress Nox4. In words: Cellular viability of HEK/Nox4 cells, CellTiter-Glo Assay. The format is cell-based. The note with it: 1 h, FIG. 2C. The procedure:
Screening was performed to rule out false positives.
UANoxO48, DMSO (vehicle control), or catalase (known H2O2 scavenger positive control) was added to a cell-free assay containing exogenous H2O2(5 mM) and scavenger activity for H2O2 was assessed by (FIG. 2A) Amplex Red assay and (FIG. 2B) ROS-Glo assay (an HRP-free assay system to rule out assay interference). (FIG. 2C) HEK cells stably transfected to overexpress Nox4 were treated with UANox048, digitonin (an inducer of cell death), or DMSO (vehicle control) and incubated for 1 h. Cellular viability was evaluated by CellTiter-Glo Assay. Values represent means±SEM; n=4; P values were calculated by student's two-tailed t test. *p<0.05, **p<0.01, *** p<0.001.

A short description of data set [2]: Differential scanning calorimetry (DSC) thermal stability. The format is physicochemical. As to conditions: solid state; room and body temperatures (32-37° C.). The text has this:
Differential scanning calorimetry (DSC) was used, a highly sensitive thermos-analytical technique to quantify the thermotropic properties and phase transitions of drug candidates. […] X-ray powder diffraction (XRPD) is a non-destructive material science “gold standard” method for measuring the degree of long-range molecular order in the powder. This is critical for solid-state characterization, where drug candidates yield a unique pattern for any given crystalline phase; this provides a ‘molecular fingerprint’ for crystallinity identification. […] Attenuated Total Reflection Fourier Transform Infrared (ATR-FTIR) Spectroscopy is a non-destructive molecular identification tool based on the absorption of infrared light by vibrational transitions in covalent bonds. This provides a ‘molecular fingerprint’ for chemical identification. ATR-FTIR permits fine discrimination between like materials and/or batch-to-batch quality verification; it is used to identify active pharmaceutical ingredients (API). […] Scanning Electron Microscopy (SEM) with Energy Dispersive X-ray (EDX) is used to visualize the synthesized particles in their native solid-state and quantify important particle properties which directly influence formulation, including surface structure, particle morphology and size, and particle size range distribution. […]

The next data set relates to Caco-2 cells. In words: Caco-2 permeability. As to conditions: 5 μM, 2 h. The format is in vitro ADME. The procedure: (§1) In vitro absorption, distribution, metabolism, and excretion (ADME) were performed on selected analogs to assess their potential for continued pre-clinical development. UANox048 analog has favorable pharmacokinetic/pharmacodynamics properties, including a low molecular weight (384.4 g/mol), calculated log D value (4.07), and polar surface area (57.8 Å^2). The compounds were tested for cellular permeability and P-glycoprotein efflux susceptibility (P-gp efflux). […] P-gp efflux was calculated by comparing permeability through Caco-2 monolayers in both the apical-to-basolateral and basolateral-to-apical directions. Permeability for Caco-2 cells was determined by the lucifer yellow monolayer integrity test. Caco-2 cells were incubated with UANox048 (5 μM, 2 h) and flux of lucifer yellow across cell monolayers was determined by LC-MS/MS using electrospray ionization. Molecular weight, log D, and polar surface area calculations were performed with ChemDraw software.

The target in another data set is T2, P-glycoprotein (Homo sapiens, UniProt P08183).
T2 construct: endogenous in cells; host or cells: Caco-2
In words: P-glycoprotein efflux susceptibility in Caco-2 monolayers. The format is in vitro ADME. The note with it: apical-to-basolateral vs basolateral-to-apical. As for the experimental part:
as §1

T2 sequence (P08183 whole entry): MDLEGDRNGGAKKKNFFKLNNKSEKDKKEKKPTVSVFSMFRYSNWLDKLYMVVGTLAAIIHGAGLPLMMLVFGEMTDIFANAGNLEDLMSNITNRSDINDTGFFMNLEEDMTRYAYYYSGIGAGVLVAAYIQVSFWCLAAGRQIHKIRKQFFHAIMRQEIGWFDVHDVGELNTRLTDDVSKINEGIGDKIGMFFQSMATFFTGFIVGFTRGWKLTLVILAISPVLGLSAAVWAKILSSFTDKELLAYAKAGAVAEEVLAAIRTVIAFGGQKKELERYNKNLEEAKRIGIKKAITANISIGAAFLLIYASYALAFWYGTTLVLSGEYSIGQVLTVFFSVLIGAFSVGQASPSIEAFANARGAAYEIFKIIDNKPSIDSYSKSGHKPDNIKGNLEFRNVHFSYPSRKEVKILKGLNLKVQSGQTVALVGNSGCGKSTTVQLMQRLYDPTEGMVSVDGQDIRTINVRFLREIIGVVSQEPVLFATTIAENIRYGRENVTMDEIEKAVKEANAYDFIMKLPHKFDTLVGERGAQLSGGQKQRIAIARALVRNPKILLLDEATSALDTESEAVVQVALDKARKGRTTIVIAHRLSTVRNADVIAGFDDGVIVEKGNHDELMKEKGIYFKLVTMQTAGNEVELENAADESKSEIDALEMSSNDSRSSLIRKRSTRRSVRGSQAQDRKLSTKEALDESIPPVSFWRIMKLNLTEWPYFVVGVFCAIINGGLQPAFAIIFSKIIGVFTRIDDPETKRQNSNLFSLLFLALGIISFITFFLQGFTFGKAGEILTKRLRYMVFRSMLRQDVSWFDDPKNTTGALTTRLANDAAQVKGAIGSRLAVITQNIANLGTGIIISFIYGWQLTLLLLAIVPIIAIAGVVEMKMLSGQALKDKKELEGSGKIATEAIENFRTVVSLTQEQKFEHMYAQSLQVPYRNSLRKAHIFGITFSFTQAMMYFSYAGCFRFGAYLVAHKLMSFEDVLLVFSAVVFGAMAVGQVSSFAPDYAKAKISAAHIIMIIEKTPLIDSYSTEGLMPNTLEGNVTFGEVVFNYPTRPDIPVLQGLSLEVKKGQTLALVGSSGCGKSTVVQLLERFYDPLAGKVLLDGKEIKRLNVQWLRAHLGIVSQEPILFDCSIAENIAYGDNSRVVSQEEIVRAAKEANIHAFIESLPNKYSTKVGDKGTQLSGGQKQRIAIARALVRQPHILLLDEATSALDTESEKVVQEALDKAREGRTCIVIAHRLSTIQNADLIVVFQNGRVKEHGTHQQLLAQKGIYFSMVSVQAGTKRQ

Turning to `CC(CNS(=O)(=O)c1ccc(C(F)(F)F)cc1)N1CCc2ccccc21` (stereo not drawn) [UANOX048, N-(2-(indolin-1-yl)propyl)-4-(trifluoromethyl)benzenesulfonamide], on Nox4 (1 h, HEK/Nox4 cells), the remaining activity at 1 µM worked out at 89.3%, the remaining activity at 5 µM came to 76.5% and the remaining activity at 10 µM was 69.3%. The compound also yielded a half-inhibitory concentration (IC50) on Nox4 (HEK/Nox4 cells, 1 h, Amplex Red, FIG. 1B) of 4.8 µM. Also, on Nox4 (varying concentrations, Amplex Red, FIG. 1A), the “H2O2 generation by HEK/Nox4 cells” value is “dose-dependent decrease”. Moreover, in data set [1], the cellular viability entry was “does not affect cellular viability”. The “stability (DSC)” value in data set [2] is given as “highly stable”. The Caco-2 permeability result with Caco-2 cells is “high”. The P-gp efflux entry at P-glycoprotein is “no P-gp efflux”.

In the case of `CC(C)(CNS(=O)(=O)c1ccc(Oc2ccccc2)cc1)N1CCc2ccccc21` [UANOX085, N-(2-(indolin-1-yl)-2-methylpropyl)-4-phenoxybenzenesulfonamide], at Nox4 (1 h, HEK/Nox4 cells), the remaining activity at 1 µM is 92.7%, the remaining activity at 5 µM worked out at 83.5% and the remaining activity at 10 µM is 73.6%.

On to `CC(C)(CNS(=O)(=O)c1ccc(F)cc1)N1CCc2ccccc21` [UANOX086, 4-fluoro-N-(2-(indolin-1-yl)-2-methylpropyl)benzenesulfonamide], for which, on Nox4 (1 h, HEK/Nox4 cells), the remaining activity at 1 µM turned out to be 90.7%, the remaining activity at 5 µM was 81.6% and the remaining activity at 10 µM is 71.4%.

With `CC(C)(CNS(=O)(=O)c1ccc(F)c(F)c1)N1CCc2ccccc21` [UANOX087, 3,4-difluoro-N-(2-(indolin-1-yl)-2-methylpropyl)benzenesulfonamide], at Nox4 (1 h, HEK/Nox4 cells), the remaining activity at 1 µM was found to be 99.7%, the remaining activity at 5 µM stood at 88.3% and the remaining activity at 10 µM is 74.1%.

Take `CC(C)(CNS(=O)(=O)c1ccc(Oc2ccc(C(F)(F)F)cn2)cc1)N1CCc2ccccc21` [UANOX088]: on Nox4 (1 h, HEK/Nox4 cells), the remaining activity at 1 µM was 102%, the remaining activity at 5 µM worked out at 90.3% and the remaining activity at 10 µM turned out to be 79.6%.

Consider `COc1ccc(S(=O)(=O)NCC(C)(C)N2CCc3ccccc32)cc1` [UANOX089, N-(2-(indolin-1-yl)-2-methylpropyl)-4-methoxybenzenesulfonamide], for which, on Nox4 (1 h, HEK/Nox4 cells), the remaining activity at 1 µM was 101%, the remaining activity at 5 µM stood at 83.6% and the remaining activity at 10 µM came out at 70.1%.

As to `CC(C)(CNS(=O)(=O)c1ccc(OC(F)(F)F)cc1)N1CCc2ccccc21` [UANOX090, N-(2-(indolin-1-yl)-2-methylpropyl)-4-(trifluoromethoxy)benzenesulfonamide], on Nox4 (1 h, HEK/Nox4 cells), the remaining activity at 1 µM came to 104%, the remaining activity at 5 µM came out at 88.7% and the remaining activity at 10 µM was 74.5%.

`O=C(CN1CCN(c2ncccn2)CC1)N1CCc2ccccc21` [UANOX0192, 1-(indolin-1-yl)-2-(4-(pyrimidin-2-yl)piperazin-1-yl)ethan-1-one]: at Nox4 (1 h, HEK/Nox4 cells), the remaining activity at 1 µM came out at 96.4%, the remaining activity at 5 µM is 111% and the remaining activity at 10 µM turned out to be 108%.

For the compound `COc1cccc(-c2ccc3c(c2)CCN3C(C)CNS(=O)(=O)N2CCN(C)CC2)c1` (stereo not drawn) [UANOX0254, N-(2-(5-(3-methoxyphenyl)indolin-1-yl)propyl)-4-methylpiperazine-1-sulfonamide], on Nox4 (1 h, HEK/Nox4 cells), the remaining activity at 1 µM stood at 87.8%, the remaining activity at 5 µM was 88% and the remaining activity at 10 µM stood at 76.3%.
